# From patent US20260028390A1, “ALPHA1-ANTITRYPSIN FOR USE IN THE TREATMENT OF DISEASES OR DISORDERS OF THE NERVOUS SYSTEM SUCH AS CHRONIC INFLAMMATORY DEMYELINATING POLYNEUROPATHY” (Ageronix SA, priority 2022, published 2026)
# Tested on: HMC3-MHCII^Luc cells
# Assay: RNAseq differential gene expression / GSEA in AAT-treated resting and IFNγ-activated microglia
# Assay type: cell-based, human
# Procedure: • A) Human microglial HMC3-MHCII^Luc cells were plated at day 0, presented IFNγ at day 1 until day 2 and measurement of the luciferase activity and cell viability were done at day 4. • B) AATs were applied from day 0 to day 4 on HMC3-MHCII^Luc cells. Activation was measured by the activity of MHCII-driven luciferase and represented as percentage of IFNγ control for all conditions. All conditions were performed in triplicates, error bars represent standard deviation. • C) Bulk RNA extraction was performed on the same HMC3-MHCII^Luc cultures. Quality control (QC) were applied to RNA before sequencing. QC of the sequencing was done prior to mapping on the human genome. Mapped reads were counted, and differential gene expression was measured between the conditions (see Table 1-10). (FIGS. 3A, 3B and 3C)
# RNAseq data from plasma-derived and recombinant AATs were pooled, normalized and analyzed through Gene Set Enrichment Analysis (GSEA) (https://www.gsea-msigdb.org/gsea/index.jsp; Subramanian, A., et al. Proc. Natl. Acad. Sci. USA, 102 (43): 15545-15550, 2005.). […] Importantly, both the IFNγ and inflammatory responses were dampened by AAT. However, the downregulation of the inflammatory response genes in (C) was just under significance.
# Tables of genes related to antigen presentation (Table 1), cytokine signaling (Table 2), interferon signaling (Table 3) and complement activation (Table 4). Inflammatory top gene (FC>2; p-value<0.05; left column), were defined by differential expression between untreated and IFNγ-treated cells (inflammation; middle column).
# HMC3-MHCII^Luc and HMC3-MHCII^Luc; Ubi^AAT (endogenous AAT) cell lines were seeded into 96-well plates at a density of approximately 2500 cells/well. HMC3-MHCII^Luc cell line was plated and was added plasma-derived AAT and recombinant AATs (produced in CHO cells, AAT 1 and AAT 2) 3h later and at ranged concentration (1; 10 or 25 μM). 24h after, still in the presence of exogenous or endogenous AAT, microglial activation was induced with a 24h-long IFNγ presentation (10 ng/ml). IFNγ was then removed and both HMC3-MHCII^Luc and HMC3-MHCII^Luc; Ubi^AAT cells were cultured for 48h in exogenous or endogenous presence of AAT before cell cultures were beeing assessed for cell viability and activation (See FIGS. 3A, 3B, 3C and 4A,4B, 4C).
# RNA samples from plasma-derived AAT and recombinant AAT Nr. 2 were checked for quality (2100 Bioanalyzer, Agilent) and libraries prepared with Truseq RNA Library Kit (Illumina, RS-122-2001). Libraries were sequenced (HiSeq 4000, Illumina) controlled for the quality of sequencing (FastQC), mapped on the human genome (STAR v.2.7.0f; UCSC hg38), reads were counted (HTSeq v0.9.1) and the differential expression analysis was performed with the R/Bioconductor package (edgeR 1.30.1.).
# [1] = Inflammation + AAT, AD risk gene
# [2] = Inflammation + AAT, MCT*/PN risk gene
# [3] = Inflammation + AAT, MS risk gene
# [4] = Inflammation + AAT, PD risk gene
# [5] = Regulated in AAT (resting condition), antigen presentation
# [6] = Regulated in AAT (resting condition), cytokine signalling
# [7] = Regulated in AAT (resting condition), interferon signaling
# [8] = head prints AAT (right block), GBS risk gene
# [9] = inflammation + AAT, antigen presentation
# [10] = inflammation + AAT, complement activation
# [11] = inflammation + AAT, cytokine signalling
# [12] = inflammation + AAT, interferon signaling
substance,measurement,setting,value
alpha1-antitrypsin (AAT) protein,IGFBP2 expression FC,"FC inflammation + AAT, M2 gene",1.34
same,IL1R1 expression FC,"FC inflammation + AAT, M2 gene",1.18
same,ITGA11 expression FC,"FC inflammation + AAT, M2 gene",1.54
same,KANK2 expression FC,"FC inflammation + AAT, M2 gene",1.25
same,KDM2B expression FC,"FC inflammation + AAT, M2 gene",1.17
same,KIAA1549L expression FC,"FC inflammation + AAT, M2 gene",1.44
same,LDHA expression FC,"FC inflammation + AAT, M2 gene",1.21
same,LOXL2 expression FC,"FC inflammation + AAT, M2 gene",1.25
same,MBOAT7 expression FC,"FC inflammation + AAT, M2 gene",1.37
same,METRN expression FC,"FC inflammation + AAT, M2 gene",1.64
same,MIF expression FC,"FC inflammation + AAT, M2 gene",1.72
same,MMP1 expression FC,"FC inflammation + AAT, M2 gene",2.39
same,MXRA8 expression FC,"FC inflammation + AAT, M2 gene",1.49
same,OLFML2B expression FC,"FC inflammation + AAT, M2 gene",1.44
same,PAPPA expression FC,"FC inflammation + AAT, M2 gene",1.31
same,PLEC expression FC,"FC inflammation + AAT, M2 gene",1.54
same,PLLP expression FC,"FC inflammation + AAT, M2 gene",1.46
same,PREX1 expression FC,"FC inflammation + AAT, M2 gene",1.28
same,PRSS23 expression FC,"FC inflammation + AAT, M2 gene",1.16
same,PTPRS expression FC,"FC inflammation + AAT, M2 gene",1.23
same,RASAL1 expression FC,"FC inflammation + AAT, M2 gene",1.45
same,SEMA3B expression FC,"FC inflammation + AAT, M2 gene",1.39
same,SERPINH1 expression FC,"FC inflammation + AAT, M2 gene",1.20
same,SH3PXD2B expression FC,"FC inflammation + AAT, M2 gene",1.19
same,SLC16A3 expression FC,"FC inflammation + AAT, M2 gene",1.65
same,STC2 expression FC,"FC inflammation + AAT, M2 gene",1.32
same,TBCD expression FC,"FC inflammation + AAT, M2 gene",1.26
same,TCEAL2 expression FC,"FC inflammation + AAT, M2 gene",1.30
same,TGFB1I1 expression FC,"FC inflammation + AAT, M2 gene",1.26
same,TGFBI expression FC,"FC inflammation + AAT, M2 gene",1.18
same,THBS1 expression FC,"FC inflammation + AAT, M2 gene",1.34
same,TNFRSF1B expression FC,"FC inflammation + AAT, M2 gene",1.23
same,ZIC2 expression FC,"FC inflammation + AAT, M2 gene",2.77
same,ZNF319 expression FC,"FC inflammation + AAT, M2 gene",1.25
same,ABCA7 expression FC,[1],1.36
same,APOE expression FC,[1],1.55
same,BIN1 expression FC,[1],1.43
same,PICALM expression FC,[1],−1.29
same,PSEN2 expression FC,[1],1.28
same,TREM2 expression FC,[1],1.47
same,CCT5 expression FC,[2],−1.13
same,DNAJB2* expression FC,[2],1.20
same,DST expression FC,[2],1.30
same,GARS* expression FC,[2],−1.24
same,GDAP1* expression FC,[2],−1.24
same,HSPB1* expression FC,[2],1.56
same,IGHMBP2* expression FC,[2],1.21
same,INF2 expression FC,[2],1.35
same,KARS* expression FC,[2],−1.13
same,LMNA* expression FC,[2],1.39
same,MED25* expression FC,[2],1.38
same,NDRG1* expression FC,[2],1.30
same,SCN9A expression FC,[2],−1.66
same,SEPT9 expression FC,[2],1.29
same,TFG* expression FC,[2],−1.19
same,TUBB3 expression FC,[2],1.44
same,TRPV4* expression FC,"Inflammation + AAT, MCT*/PN risk gene, first TRPV4* line",1.72
same,TRPV4* expression FC,"Inflammation + AAT, MCT*/PN risk gene, second TRPV4* line",1.40
same,AGAP2 expression FC,[3],1.45
same,CYP24A1 expression FC,[3],1.34
same,DKKL1 expression FC,[3],2.12
same,HLA-A expression FC,[3],1.57
same,HLA-DRB1 expression FC,[3],1.51
same,MPHOSPH9 expression FC,[3],−1.19
same,NFKBIZ expression FC,[3],−1.37
same,SLC30A7 expression FC,[3],−1.56
same,ZMIZ1 expression FC,[3],1.47
same,ATP13A2 expression FC,[4],1.49
same,DNAJC6 expression FC,[4],−1.12
same,GBA expression FC,[4],1.15
same,LRP10 expression FC,[4],1.23
same,PINK1 expression FC,[4],1.20
same,PLA2G6 expression FC,[4],1.37
same,SYNJ1 expression FC,[4],−1.23
same,UCHL1 expression FC,[4],−1.10
same,NFATC1 expression FC,[5],1.44
same,TRAF6 expression FC,[5],−1.26
same,PLAU expression FC,"Regulated in AAT (resting condition), complement activation",−1.27
same,BIRC2 expression FC,[6],−1.53
same,CEBPG expression FC,[6],−1.31
same,MYD88 expression FC,[6],−1.35
same,RASGRF2 expression FC,[6],−1.45
same,RIPK2 expression FC,[6],−1.30
same,SPTBN1 expression FC,[6],−1.21
same,STAT1 expression FC,[6],−1.47
same,TM7SF3 expression FC,[6],−1.18
same,TNFSF9 expression FC,[6],1.26
same,TRAF6 expression FC,[6],−1.26
same,IRF2 expression FC,[7],−1.17
same,STAT1 expression FC,[7],−1.47
same,FOS expression FC AAT,[8],−1.54
same,GUK1 expression FC AAT,[8],1.31
same,LY96 expression FC AAT,[8],−2.31
same,MARCKS expression FC AAT,[8],−1.84
same,NFIL3 expression FC AAT,[8],−1.22
same,ZNF12 expression FC AAT,[8],−1.23
same,genes related to the unfolded protein response (UPR) pathway and cell-survival (GSEA),"human microglial cells, AAT treatment",upregulation
same,CALR expression FC,[9],1.35
same,CTSA expression FC,[9],1.17
same,CTSD expression FC,[9],1.47
same,HLA-DOB expression FC,[9],−4.49
same,HLA-DPB1 expression FC,[9],1.31
same,HLA-DRA expression FC,[9],−2.22
same,IL1B expression FC,[9],−2.07
same,MRC2 expression FC,[9],1.47
same,NFATC2 expression FC,[9],1.63
same,PSMB9 expression FC,[9],−1.23
same,PYCARD expression FC,[9],2.20
same,SOCS3 expression FC,[9],1.20
same,TAPBP expression FC,[9],1.23
same,C3AR1 expression FC,[10],−1.50
same,ITGAX expression FC,[10],1.41
same,PLAUR expression FC,[10],1.32
same,SERPINB2 expression FC,[10],−4.63
same,ANXA1 expression FC,[11],−1.33
same,ATF3 expression FC,[11],−1.26
same,CX3CL1 expression FC,[11],1.61
same,CXCL1 expression FC,[11],−2.09
same,CXCL5 expression FC,[11],−2.15
same,DUSP6 expression FC,[11],−1.26
same,FGF2 expression FC,[11],−1.57
same,FSCN1 expression FC,[11],1.48
same,HBEGF expression FC,[11],−1.30
same,IL1B expression FC,[11],−2.07
same,IL1R1 expression FC,[11],1.18
same,IL18 expression FC,[11],−1.75
same,IL27RA expression FC,[11],1.36
same,IL411 expression FC,[11],1.95
same,JAK3 expression FC,[11],1.43
same,MAP2K2 expression FC,[11],1.51
same,MAP2K3 expression FC,[11],1.37
same,MAPK11 expression FC,[11],1.44
same,MAPK12 expression FC,[11],1.33
same,MAPK13 expression FC,[11],1.23
same,NFKBIZ expression FC,[11],−1.37
same,PSMB9 expression FC,[11],−1.23
same,RASAL1 expression FC,[11],1.52
same,SOCS3 expression FC,[11],1.20
same,STAT5A expression FC,[11],1.45
same,TNFRSF9 expression FC,[11],−2.35
same,TRAF2 expression FC,[11],1.42
same,CD44 expression FC,[12],1.14
same,FLNB expression FC,[12],−1.20
same,HLA-DPB1 expression FC,[12],1.31
same,HLA-DRA expression FC,[12],−2.22
same,IFIT1 expression FC,[12],−1.78
same,IFNAR1 expression FC,[12],−1.63
same,IRF3 expression FC,[12],1.56
same,MX1 expression FC,[12],−2.00
same,MX2 expression FC,[12],−2.14
same,SOCS3 expression FC,[12],1.20
same,USP18 expression FC,[12],−1.76
same,inflammatory top genes found affected by AAT treatment,"top genes FC>2, p-value<0.05, significantly and oppositely regulated",~35%
